Measurements taken from ChEMBL document CHEMBL4024706 (Eur J Med Chem, 2017).

Columns and labels:
[1] = system: OCI-AML-3; test: Growth inhibition of human OCI-AML3 cells; format: functional; details: Homo sapiens, OCI-AML-3
[2] = AUC (0 to infinity) in Sprague-Dawley rat at 10 mg/kg, po by LC-MS/MS method; format: ADME, organism-based; design: dose 10 mg/kg, route oral, time infinity; details: in vivo
[3] = target: Atypical kinase COQ8B, mitochondrial (Homo sapiens) (UniProt Q96D53); test: Inhibition of wild-type human full length ADCK4 (M1 to S544 residues) expressed in bacterial expression system assessed as residual activity at 1 uM by Kinomescan method relative to control
[4] = target: Mitogen-activated protein kinase kinase kinase 5 (Homo sapiens) (UniProt Q99683); test: Inhibition of wild-type human partial length ASK1 (E648 to S964 residues) expressed in bacterial expression system assessed as residual activity at 1 uM by Kinomescan method relative to control
[5] = target: Calcium/calmodulin-dependent protein kinase type II subunit delta (Homo sapiens) (UniProt Q13557); test: Inhibition of wild-type human partial length CAMK2D (M1 to E329 residues) expressed in bacterial expression system assessed as residual activity at 1 uM by Kinomescan method relative to control
Calcium/calmodulin-dependent protein kinase type II subunit delta (Homo sapiens), sequence (Q13557 whole entry, the tested form may be a part): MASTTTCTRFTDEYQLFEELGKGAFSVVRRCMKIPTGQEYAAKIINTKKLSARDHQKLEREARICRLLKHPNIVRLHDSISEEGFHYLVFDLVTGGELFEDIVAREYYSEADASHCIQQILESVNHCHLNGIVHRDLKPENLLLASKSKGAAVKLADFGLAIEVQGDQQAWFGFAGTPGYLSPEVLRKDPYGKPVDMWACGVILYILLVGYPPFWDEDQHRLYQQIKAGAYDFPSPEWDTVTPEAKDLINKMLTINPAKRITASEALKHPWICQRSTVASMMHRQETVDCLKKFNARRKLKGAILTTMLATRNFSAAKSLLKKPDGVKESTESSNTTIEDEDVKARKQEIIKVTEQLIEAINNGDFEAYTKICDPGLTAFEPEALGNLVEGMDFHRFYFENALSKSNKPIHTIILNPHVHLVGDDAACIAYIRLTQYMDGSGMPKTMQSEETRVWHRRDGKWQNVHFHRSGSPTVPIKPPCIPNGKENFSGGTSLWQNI

[6] = target: Cyclin-dependent kinase 8 (Homo sapiens) (UniProt P49336); test: Inhibition of wild-type human partial length CDK8 (M1 to T360 residues) expressed in bacterial expression system assessed as residual activity at 1 uM by Kinomescan method relative to control
[7] = system: Epidermal growth factor receptor (Homo sapiens), P00533 [L858R,T790M]; test: Inhibition of human partial length EGFR L858R/T790M double mutant (R669 to V1011 residues) expressed in mammalian expression system assessed as residual activity at 1 uM by Kinomescan method relative to control
[8] = target: Ephrin type-A receptor 3 (Homo sapiens) (UniProt P29320); test: Inhibition of wild-type human partial length EPHA3 (D604 to K889 residues) expressed in bacterial expression system assessed as residual activity at 1 uM by Kinomescan method relative to control
[9] = target: Tyrosine-protein kinase Fgr (Homo sapiens) (UniProt P09769); test: Inhibition of wild-type human partial length FGR (L233 to T529 residues) expressed in bacterial expression system assessed as residual activity at 1 uM by Kinomescan method relative to control
[10] = system: Receptor-type tyrosine-protein kinase FLT3 (Homo sapiens), P36888 [D835V]; test: Inhibition of human partial length FLT3 D835V mutant (V592 to Y969 residues) expressed in bacterial expression system assessed as residual activity at 1 uM by Kinomescan method relative to control
[11] = system: eIF-2-alpha kinase GCN2 (Homo sapiens), Q9P2K8 [S808G]; test: Inhibition of […] human partial length GCN2 kinase domain 2 (R585 to T1018 residues) S808G mutant expressed in bacterial expression system assessed as residual activity at 1 uM by Kinomescan method relative to control
[12] = target: Tyrosine-protein kinase ITK/TSK (Homo sapiens) (UniProt Q08881); test: Inhibition of wild-type human partial length ITK (R335 to L620 residues) expressed in bacterial expression system assessed as residual activity at 1 uM by Kinomescan method relative to control
Tyrosine-protein kinase ITK/TSK (Homo sapiens), sequence (Q08881 whole entry, the tested form may be a part): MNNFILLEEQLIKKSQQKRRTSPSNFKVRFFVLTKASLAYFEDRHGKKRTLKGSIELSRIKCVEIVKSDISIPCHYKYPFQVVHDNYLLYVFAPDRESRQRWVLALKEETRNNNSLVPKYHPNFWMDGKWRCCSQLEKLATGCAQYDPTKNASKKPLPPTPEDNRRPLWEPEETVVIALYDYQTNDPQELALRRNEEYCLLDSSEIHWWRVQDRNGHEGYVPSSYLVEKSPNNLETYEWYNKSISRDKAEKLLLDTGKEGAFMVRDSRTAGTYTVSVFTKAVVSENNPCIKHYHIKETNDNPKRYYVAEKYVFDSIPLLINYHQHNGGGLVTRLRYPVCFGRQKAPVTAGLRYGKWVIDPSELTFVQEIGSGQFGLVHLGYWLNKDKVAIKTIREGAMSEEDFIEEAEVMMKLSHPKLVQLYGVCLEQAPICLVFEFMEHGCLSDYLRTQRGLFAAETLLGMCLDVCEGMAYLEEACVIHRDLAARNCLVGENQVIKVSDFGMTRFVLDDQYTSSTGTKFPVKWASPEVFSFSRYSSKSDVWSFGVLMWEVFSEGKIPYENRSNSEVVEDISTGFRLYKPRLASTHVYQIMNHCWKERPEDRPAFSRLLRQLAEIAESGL

[13] = system: Mast/stem cell growth factor receptor Kit (Homo sapiens), P10721 [UNDEFINED MUTATION]; test: Inhibition of human partial length KIT V559D/V654 double mutant (Y545 to D952 residues) expressed in bacterial expression system assessed as residual activity at 1 uM by Kinomescan method relative to control
Mast/stem cell growth factor receptor Kit (Homo sapiens), P10721 [UNDEFINED MUTATION], sequence (P10721 whole entry, looked up, stated change not applied, the tested form may be a part): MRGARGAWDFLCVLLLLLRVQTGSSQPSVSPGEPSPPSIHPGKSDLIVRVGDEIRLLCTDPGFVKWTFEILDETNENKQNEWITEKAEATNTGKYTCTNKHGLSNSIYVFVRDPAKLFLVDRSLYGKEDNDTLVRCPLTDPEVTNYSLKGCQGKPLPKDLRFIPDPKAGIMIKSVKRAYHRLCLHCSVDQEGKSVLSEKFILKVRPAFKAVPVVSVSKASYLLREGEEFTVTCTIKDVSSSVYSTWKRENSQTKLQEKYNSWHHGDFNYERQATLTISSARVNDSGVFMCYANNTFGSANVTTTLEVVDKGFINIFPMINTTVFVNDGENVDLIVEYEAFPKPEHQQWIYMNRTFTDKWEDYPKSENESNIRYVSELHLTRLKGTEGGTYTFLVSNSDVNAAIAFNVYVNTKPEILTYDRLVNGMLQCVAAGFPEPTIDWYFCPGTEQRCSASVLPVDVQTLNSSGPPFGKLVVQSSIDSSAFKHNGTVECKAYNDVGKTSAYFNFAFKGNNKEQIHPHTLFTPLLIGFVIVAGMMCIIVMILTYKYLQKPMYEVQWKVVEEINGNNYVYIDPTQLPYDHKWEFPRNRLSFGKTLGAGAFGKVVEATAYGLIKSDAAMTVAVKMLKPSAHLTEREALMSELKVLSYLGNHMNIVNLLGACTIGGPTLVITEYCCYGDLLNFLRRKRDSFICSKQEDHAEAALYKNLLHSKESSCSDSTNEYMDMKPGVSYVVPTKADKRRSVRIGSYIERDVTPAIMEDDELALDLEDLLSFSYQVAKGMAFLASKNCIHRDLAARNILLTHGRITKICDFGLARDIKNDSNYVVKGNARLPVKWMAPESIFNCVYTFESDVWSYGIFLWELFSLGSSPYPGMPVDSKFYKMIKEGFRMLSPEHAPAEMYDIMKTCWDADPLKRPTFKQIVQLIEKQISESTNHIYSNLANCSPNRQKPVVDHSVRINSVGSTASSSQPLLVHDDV

[14] = target: LIM domain kinase 1 (Homo sapiens) (UniProt P53667); test: Inhibition of wild-type human full length LIMK1 (M1 to D647 residues) expressed in bacterial expression system assessed as residual activity at 1 uM by Kinomescan method relative to control
[15] = target: Mitogen-activated protein kinase kinase kinase 14 (Homo sapiens) (UniProt Q99558); test: Inhibition of wild-type human partial length NIK (L318 to P947 residues) expressed in mammalian expression system assessed as residual activity at 1 uM by Kinomescan method relative to control
[16] = target: cAMP-dependent protein kinase catalytic subunit beta (Homo sapiens) (UniProt P22694); test: Inhibition of wild-type human full length PKAC-beta (M1 to F351 residues) expressed in bacterial expression system assessed as residual activity at 1 uM by Kinomescan method relative to control
[17] = target: Protein kinase C eta type (Homo sapiens) (UniProt P24723); test: Inhibition of wild-type human partial length PRKCH (S324 to P683 residues) expressed in bacterial expression system assessed as residual activity at 1 uM by Kinomescan method relative to control
[18] = system: Proto-oncogene tyrosine-protein kinase receptor Ret (Homo sapiens), P07949 [V804L]; test: Inhibition of human partial length RET V804L mutant (E713 to D1014 residues) expressed in bacterial expression system assessed as residual activity at 1 uM by Kinomescan method relative to control
Proto-oncogene tyrosine-protein kinase receptor Ret (Homo sapiens), P07949 [V804L], sequence (P07949 whole entry V804L, the tested form may be a part): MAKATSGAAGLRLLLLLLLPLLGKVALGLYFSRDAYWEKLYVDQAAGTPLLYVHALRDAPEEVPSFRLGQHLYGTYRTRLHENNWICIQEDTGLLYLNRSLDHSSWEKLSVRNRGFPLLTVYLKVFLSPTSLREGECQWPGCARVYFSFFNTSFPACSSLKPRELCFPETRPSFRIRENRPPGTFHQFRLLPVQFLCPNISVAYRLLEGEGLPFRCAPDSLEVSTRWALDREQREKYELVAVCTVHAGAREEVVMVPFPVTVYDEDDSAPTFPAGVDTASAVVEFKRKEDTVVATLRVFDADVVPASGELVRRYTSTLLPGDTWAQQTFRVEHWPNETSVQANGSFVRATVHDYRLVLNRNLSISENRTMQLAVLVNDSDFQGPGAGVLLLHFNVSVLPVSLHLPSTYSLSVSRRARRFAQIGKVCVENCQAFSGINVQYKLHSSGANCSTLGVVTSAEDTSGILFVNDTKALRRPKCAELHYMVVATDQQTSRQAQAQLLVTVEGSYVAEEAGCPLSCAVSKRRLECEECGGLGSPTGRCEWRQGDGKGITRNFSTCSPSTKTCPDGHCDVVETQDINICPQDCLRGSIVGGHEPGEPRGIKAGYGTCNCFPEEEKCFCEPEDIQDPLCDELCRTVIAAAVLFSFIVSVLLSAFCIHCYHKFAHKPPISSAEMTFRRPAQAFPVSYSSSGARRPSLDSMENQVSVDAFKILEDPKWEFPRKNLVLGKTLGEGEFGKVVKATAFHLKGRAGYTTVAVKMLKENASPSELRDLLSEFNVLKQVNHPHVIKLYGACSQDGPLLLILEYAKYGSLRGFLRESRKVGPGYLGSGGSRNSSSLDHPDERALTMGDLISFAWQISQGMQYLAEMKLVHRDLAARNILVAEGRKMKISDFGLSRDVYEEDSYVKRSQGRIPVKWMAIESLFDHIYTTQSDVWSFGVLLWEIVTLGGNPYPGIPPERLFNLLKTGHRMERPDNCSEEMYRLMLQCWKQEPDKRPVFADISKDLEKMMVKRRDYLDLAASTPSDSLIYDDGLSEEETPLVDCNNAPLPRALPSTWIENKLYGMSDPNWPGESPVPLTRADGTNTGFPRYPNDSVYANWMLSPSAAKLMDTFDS

[19] = target: Ribosomal protein S6 kinase alpha-4 (Homo sapiens) (UniProt O75676); test: Inhibition of wild-type human partial length C-terminal RPS6KA4 kinase domain 2 (M375 to T705 residues) expressed in mammalian expression system assessed as residual activity at 1 uM by Kinomescan method relative to control
Ribosomal protein S6 kinase alpha-4 (Homo sapiens), sequence (O75676 whole entry, looked up, the tested form may be a part): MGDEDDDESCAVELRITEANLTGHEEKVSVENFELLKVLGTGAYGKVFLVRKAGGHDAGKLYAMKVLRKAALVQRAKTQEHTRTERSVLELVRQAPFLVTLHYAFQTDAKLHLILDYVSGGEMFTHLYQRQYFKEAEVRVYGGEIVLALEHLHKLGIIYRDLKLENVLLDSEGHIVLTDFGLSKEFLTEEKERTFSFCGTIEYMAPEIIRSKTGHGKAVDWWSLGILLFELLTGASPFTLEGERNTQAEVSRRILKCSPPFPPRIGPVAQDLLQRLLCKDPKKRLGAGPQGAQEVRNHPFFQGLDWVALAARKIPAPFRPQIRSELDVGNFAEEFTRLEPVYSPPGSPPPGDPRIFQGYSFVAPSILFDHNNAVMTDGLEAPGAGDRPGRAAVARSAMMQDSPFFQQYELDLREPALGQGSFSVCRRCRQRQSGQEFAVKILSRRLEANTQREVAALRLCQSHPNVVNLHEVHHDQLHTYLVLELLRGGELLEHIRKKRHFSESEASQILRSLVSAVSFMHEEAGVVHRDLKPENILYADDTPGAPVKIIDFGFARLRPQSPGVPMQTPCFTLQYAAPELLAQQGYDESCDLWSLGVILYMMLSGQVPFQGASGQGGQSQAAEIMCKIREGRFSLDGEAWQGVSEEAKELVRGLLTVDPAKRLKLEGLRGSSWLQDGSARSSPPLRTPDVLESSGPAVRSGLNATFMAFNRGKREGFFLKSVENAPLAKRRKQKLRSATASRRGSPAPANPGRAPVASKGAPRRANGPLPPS

[20] = target: Ribosomal protein S6 kinase alpha-5 (Homo sapiens) (UniProt O75582); test: Inhibition of wild-type human partial length C-terminal RPS6KA5 kinase domain 2 (V390 to T718 residues) expressed in bacterial expression system assessed as residual activity at 1 uM by Kinomescan method relative to control
[21] = target: Proto-oncogene tyrosine-protein kinase Src (Homo sapiens) (UniProt P12931); test: Inhibition of wild-type human partial length SRC (L240 to L536 residues) expressed in bacterial expression system assessed as residual activity at 1 uM by Kinomescan method relative to control
Proto-oncogene tyrosine-protein kinase Src (Homo sapiens), sequence (P12931 2-536 limits assumed): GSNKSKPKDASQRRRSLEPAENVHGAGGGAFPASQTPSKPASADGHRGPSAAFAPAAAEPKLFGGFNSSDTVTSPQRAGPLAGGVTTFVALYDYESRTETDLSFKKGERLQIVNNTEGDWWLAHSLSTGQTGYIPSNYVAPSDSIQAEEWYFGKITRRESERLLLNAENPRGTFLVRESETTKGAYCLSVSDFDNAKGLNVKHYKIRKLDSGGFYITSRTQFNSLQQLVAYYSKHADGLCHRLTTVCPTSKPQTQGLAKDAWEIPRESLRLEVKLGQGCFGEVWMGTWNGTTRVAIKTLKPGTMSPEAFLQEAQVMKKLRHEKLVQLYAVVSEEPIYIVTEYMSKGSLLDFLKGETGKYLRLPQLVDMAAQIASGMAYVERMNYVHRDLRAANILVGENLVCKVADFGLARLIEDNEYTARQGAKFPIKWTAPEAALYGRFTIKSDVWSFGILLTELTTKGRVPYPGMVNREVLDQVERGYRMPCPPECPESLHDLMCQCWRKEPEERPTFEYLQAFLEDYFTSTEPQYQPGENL

[22] = target: Transient receptor potential cation channel subfamily M member 6 (Homo sapiens) (UniProt Q9BX84); test: Inhibition of wild-type human partial length TRPM6 (Q1723 to I1998 residues) expressed in mammalian expression system assessed as residual activity at 1 uM by Kinomescan method relative to control
[23] = target: Dual specificity protein kinase TTK (Homo sapiens) (UniProt P33981); test: Inhibition of wild-type human partial length TTK (N505 to V798 residues) expressed in bacterial expression system assessed as residual activity at 1 uM by Kinomescan method relative to control
[24] = target: Tyrosine-protein kinase TXK (Homo sapiens) (UniProt P42681); test: Inhibition of wild-type human partial length TXK (L238 to W527 residues) expressed in bacterial expression system assessed as residual activity at 1 uM by Kinomescan method relative to control
Tyrosine-protein kinase TXK (Homo sapiens), sequence (P42681 whole entry, the tested form may be a part): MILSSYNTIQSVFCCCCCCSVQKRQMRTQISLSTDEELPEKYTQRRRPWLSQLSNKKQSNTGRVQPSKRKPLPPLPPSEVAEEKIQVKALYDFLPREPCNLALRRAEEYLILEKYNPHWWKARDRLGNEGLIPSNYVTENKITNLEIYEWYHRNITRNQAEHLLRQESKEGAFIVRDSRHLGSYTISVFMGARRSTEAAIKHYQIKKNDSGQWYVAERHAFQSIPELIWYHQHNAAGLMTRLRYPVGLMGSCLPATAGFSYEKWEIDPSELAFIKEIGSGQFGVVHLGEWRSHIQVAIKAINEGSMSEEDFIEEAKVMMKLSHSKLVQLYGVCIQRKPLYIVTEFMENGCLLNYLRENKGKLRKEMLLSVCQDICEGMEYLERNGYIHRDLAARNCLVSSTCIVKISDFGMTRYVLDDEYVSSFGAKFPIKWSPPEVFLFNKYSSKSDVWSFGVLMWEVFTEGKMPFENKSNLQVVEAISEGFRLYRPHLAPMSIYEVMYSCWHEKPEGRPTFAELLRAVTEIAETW

[25] = target: Serine/threonine-protein kinase WNK3 (Homo sapiens) (UniProt Q9BYP7); test: Inhibition of wild-type human partial length WNK3 (M1 to D434 residues) expressed in mammalian expression system assessed as residual activity at 1 uM by Kinomescan method relative to control
[26] = system: U2932; test: Induction of apoptosis in human U2932 cells assessed as induction of caspase-3 cleavage after 48 hrs by immunoblot; format: functional, cell-based

`C=CC(=O)Nc1cc(Nc2cc(-c3cccc(NC(=O)c4ccc(C(C)(C)C)cc4)c3C)cn(C)c2=O)ccc1C(=O)N1CCOCC1` showed a GI50 [1] of 3.8 µM, an AUC(0-inf) [2] of 34.5 ng·h/mL and an Activity [3] of 100%. For the same compound, the Activity [4] was 100%, the Activity [5] was 100% and the Activity [6] was 100%. It also gave an Activity [7] of 89%, an Activity [8] of 95% and an Activity [9] of 77%. It also gave an Activity [10] of 70%, an Activity [11] of 100% and an Activity [12] of 100%. The Activity [13] was 93%, the Activity [14] was 86% and the Activity [15] was 86%. It also gave an Activity [16] of 96%, an Activity [17] of 100% and an Activity [18] of 100%. For the same compound, the Activity [19] was 100%, the Activity [20] was 100% and the Activity [21] was 99%. For the same compound, the Activity [22] was 99%, the Activity [23] was 99% and the Activity [24] was 100%. The Activity [25] was 94% and the Activity [26] was “Dose-dependent effect”.
